From the supplement of paper PMC10307832

Tests used:
Assay in all cases: relative viability (nuclei count vs DMSO), 5 days (fraction); higher = more cells survive
[1] = compound: Nc1ccn([C@@H]2O[C@H](CO)[C@@H](O)C2(F)F)c(=O)n1 [Gemcitabine]
Method in brief: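 Nuclei counted with MetaXpress define viability as the ratio of treated to vehicle wells, given as a median across plates. The lung cancer cell lines were in 1536-well plates, pinned with five √10-spaced library-drug doses and imaged at 4× after 5 days and Hoechst staining. Plates passed with control CV below 25% and at least one doubling.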

[2] = compound: Nc1ccn([C@@H]2O[C@H](CO)[C@@H](O)C2(F)F)c(=O)n1 [Gemcitabine] + O=C(CCCCCCC(=O)Nc1ccccc1)NO [Vorinostat] (partner 1 µM)
Method in brief: (§1)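 After 5 days of treatment, lung cancer cells in 1536-well plates were fixed and stained in a single step (final 0.05% Triton X-100, 1% formaldehyde, 1 ug/ml Hoechst) and their nuclei counted on 4× images. Treatment had been applied by pin tool the day after seeding as one drug alone or as a fixed anchor-drug dose with five library-drug doses (not always all listed) in √10 steps. Relative viability is the nuclei count of treated wells divided by that of vehicle wells, and values are medians of duplicate plates.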

[3] = compound: Nc1ccn([C@@H]2O[C@H](CO)[C@@H](O)C2(F)F)c(=O)n1 [Gemcitabine] + CC(=O)c1c(C)c2cnc(Nc3ccc(N4CCNCC4)cn3)nc2n(C2CCCC2)c1=O [Palbociclib] (partner 0.5 µM)
Method in brief: as §1

[4] = compound: Nc1ccn([C@@H]2O[C@H](CO)[C@@H](O)C2(F)F)c(=O)n1 [Gemcitabine] + CC(=O)Nc1cccc(-n2c(=O)n(C3CC3)c(=O)c3c(Nc4ccc(I)cc4F)n(C)c(=O)c(C)c32)c1 [Trametinib] (partner 0.02 µM)
Method in brief: as §1

[5] = compound: Nc1ccn([C@@H]2O[C@H](CO)[C@@H](O)C2(F)F)c(=O)n1 [Gemcitabine] + Cc1cc(Nc2cc(N3CCN(C)CC3)nc(Sc3ccc(NC(=O)C4CC4)cc3)n2)n[nH]1 [Tozasertib] (partner 0.1 µM)
Method in brief: as §1

[6] = compound: Nc1ccn([C@@H]2O[C@H](CO)[C@@H](O)C2(F)F)c(=O)n1 [Gemcitabine] + NC(=O)Nc1cc(-c2cccc(F)c2)sc1C(=O)N[C@H]1CCCNC1 [AZD7762] (partner 0.2 µM)
Method in brief: as §1

[7] = compound: Nc1ccn([C@@H]2O[C@H](CO)[C@@H](O)C2(F)F)c(=O)n1 [Gemcitabine] + COc1cccc2cc(-c3nc([C@H]4CC[C@H](C(=O)O)CC4)n4ncnc(N)c34)[nH]c12 [OSI-027] (partner 0.5 µM)
Method in brief: as §1

[8] = compound: Nc1ccn([C@@H]2O[C@H](CO)[C@@H](O)C2(F)F)c(=O)n1 [Gemcitabine] + O=C(c1cc(Cc2n[nH]c(=O)c3ccccc23)ccc1F)N1CCN(C(=O)C2CC2)CC1 [Olaparib] (partner 8 µM)
Method in brief: as §1

[9] = compound: Nc1ccn([C@@H]2O[C@H](CO)[C@@H](O)C2(F)F)c(=O)n1 [Gemcitabine] + Nc1nc2[nH]cc(CCc3ccc(C(=O)N[C@@H](CCC(=O)O)C(=O)O)cc3)c2c(=O)[nH]1 [Pemetrexed] (partner 0.2 µM)
Method in brief: as §1

[10] = compound: Nc1ccn([C@@H]2O[C@H](CO)[C@@H](O)C2(F)F)c(=O)n1 [Gemcitabine] + Nc1ncn([C@H]2C[C@H](O)[C@@H](CO)O2)c(=O)n1 [Decitabine] (partner 2 µM)
Method in brief: as §1

[11] = compound: Nc1ccn([C@@H]2O[C@H](CO)[C@@H](O)C2(F)F)c(=O)n1 [Gemcitabine] + CCNC(=O)c1noc(-c2cc(C(C)C)c(O)cc2O)c1-c1ccc(CN2CCOCC2)cc1 [Luminespib] (partner 0.01 µM)
Method in brief: as §1

[12] = compound: Nc1ccn([C@@H]2O[C@H](CO)[C@@H](O)C2(F)F)c(=O)n1 [Gemcitabine] + COc1cc2c(Oc3ccc(NC(=O)C4(C(=O)Nc5ccc(F)cc5)CC4)cc3F)ccnc2cc1OCCCN1CCOCC1 [Foretinib] (partner 0.25 µM)
Method in brief: as §1

[13] = compound: Nc1ccn([C@@H]2O[C@H](CO)[C@@H](O)C2(F)F)c(=O)n1 [Gemcitabine] + N=C(N)NC(=N)NCCc1ccccc1 [Phenformin] (partner 250 µM)
Method in brief: as §1

[14] = compound: Nc1ccn([C@@H]2O[C@H](CO)[C@@H](O)C2(F)F)c(=O)n1 [Gemcitabine] + Cc1nc(Nc2ncc(C(=O)Nc3c(C)cccc3Cl)s2)cc(N2CCN(CCO)CC2)n1 [Dasatinib] (partner 0.075 µM)
Method in brief: as §1

NCI-H1648 was tested, and the relative viability ([1]; 0.001 µM) was 0.846, the relative viability ([1]; 0.003162 µM) was 0.771 and the relative viability ([1]; 0.01 µM) was 0.999. It also gave a relative viability ([1]; 0.03162 µM) of 0.413, a relative viability ([1]; 0.1 µM) of 0.283 and a relative viability ([2]; first compound 0.001 µM) of 0.435. The relative viability ([2]; first compound 0.003162 µM) was 0.388, the relative viability ([2]; first compound 0.01 µM) was 0.461 and the relative viability ([2]; first compound 0.03162 µM) was 0.288. It also gave a relative viability ([2]; first compound 0.1 µM) of 0.209, a relative viability ([3]; first compound 0.001 µM) of 0.267 and a relative viability ([3]; first compound 0.003162 µM) of 0.273. The relative viability ([3]; first compound 0.01 µM) was 0.262, the relative viability ([3]; first compound 0.03162 µM) was 0.226 and the relative viability ([3]; first compound 0.1 µM) was 0.327. The relative viability ([4]; first compound 0.001 µM) was 0.423, the relative viability ([4]; first compound 0.003162 µM) was 0.339 and the relative viability ([4]; first compound 0.01 µM) was 0.473. For the same cell line, the relative viability ([4]; first compound 0.03162 µM) was 0.326, the relative viability ([4]; first compound 0.1 µM) was 0.234 and the relative viability ([5]; first compound 0.001 µM) was 0.593. For the same cell line, the relative viability ([5]; first compound 0.01 µM) was 0.407, the relative viability ([5]; first compound 0.03162 µM) was 0.251 and the relative viability ([5]; first compound 0.1 µM) was 0.198. For the same cell line, the relative viability ([6]; first compound 0.001 µM) was 0.686, the relative viability ([6]; first compound 0.003162 µM) was 0.551 and the relative viability ([6]; first compound 0.01 µM) was 0.401. For the same cell line, the relative viability ([6]; first compound 0.03162 µM) was 0.3, the relative viability ([6]; first compound 0.1 µM) was 0.279 and the relative viability ([7]; first compound 0.001 µM) was 0.245. The relative viability ([7]; first compound 0.01 µM) was 0.245, the relative viability ([7]; first compound 0.03162 µM) was 0.228 and the relative viability ([7]; first compound 0.1 µM) was 0.276. The relative viability ([8]; first compound 0.001 µM) was 1.01, the relative viability ([8]; first compound 0.003162 µM) was 0.659 and the relative viability ([8]; first compound 0.01 µM) was 0.497. For the same cell line, the relative viability ([8]; first compound 0.03162 µM) was 0.335, the relative viability ([8]; first compound 0.1 µM) was 0.227 and the relative viability ([9]; first compound 0.001 µM) was 0.836. It also gave a relative viability ([9]; first compound 0.003162 µM) of 0.64, a relative viability ([9]; first compound 0.01 µM) of 0.628 and a relative viability ([9]; first compound 0.03162 µM) of 0.339. It also gave a relative viability ([9]; first compound 0.1 µM) of 0.349, a relative viability ([10]; first compound 0.001 µM) of 0.515 and a relative viability ([10]; first compound 0.003162 µM) of 0.443. It also gave a relative viability ([10]; first compound 0.01 µM) of 0.442, a relative viability ([10]; first compound 0.03162 µM) of 0.315 and a relative viability ([10]; first compound 0.1 µM) of 0.293.

NCI-H1623 showed a relative viability ([1]; 0.001 µM) of 0.743, a relative viability ([1]; 0.003162 µM) of 0.255 and a relative viability ([1]; 0.01 µM) of 0.218. For the same cell line, the relative viability ([1]; 0.03162 µM) was 0.188, the relative viability ([1]; 0.1 µM) was 0.178 and the relative viability ([5]; first compound 0.001 µM) was 0.333. The relative viability ([5]; first compound 0.003162 µM) was 0.222, the relative viability ([5]; first compound 0.01 µM) was 0.173 and the relative viability ([5]; first compound 0.03162 µM) was 0.16. For the same cell line, the relative viability ([5]; first compound 0.1 µM) was 0.17, the relative viability ([11]; first compound 0.001 µM) was 0.43 and the relative viability ([11]; first compound 0.003162 µM) was 0.308. It also gave a relative viability ([11]; first compound 0.01 µM) of 0.279, a relative viability ([11]; first compound 0.03162 µM) of 0.236 and a relative viability ([11]; first compound 0.1 µM) of 0.234. The relative viability ([7]; first compound 0.001 µM) was 0.349, the relative viability ([7]; first compound 0.003162 µM) was 0.29 and the relative viability ([7]; first compound 0.01 µM) was 0.254. It also gave a relative viability ([7]; first compound 0.03162 µM) of 0.245, a relative viability ([7]; first compound 0.1 µM) of 0.237 and a relative viability ([12]; first compound 0.001 µM) of 0.741. The relative viability ([12]; first compound 0.003162 µM) was 0.518, the relative viability ([12]; first compound 0.01 µM) was 0.268 and the relative viability ([12]; first compound 0.03162 µM) was 0.229. The relative viability ([12]; first compound 0.1 µM) was 0.194, the relative viability ([13]; first compound 0.001 µM) was 0.526 and the relative viability ([13]; first compound 0.003162 µM) was 0.49. The relative viability ([13]; first compound 0.01 µM) was 0.201, the relative viability ([13]; first compound 0.03162 µM) was 0.369 and the relative viability ([13]; first compound 0.1 µM) was 0.164. The relative viability ([14]; first compound 0.001 µM) was 0.485, the relative viability ([14]; first compound 0.003162 µM) was 0.431 and the relative viability ([14]; first compound 0.01 µM) was 0.175. For the same cell line, the relative viability ([14]; first compound 0.03162 µM) was 0.139 and the relative viability ([14]; first compound 0.1 µM) was 0.143.
